Measured values published in ChEMBL document CHEMBL3992552, “Mechanisms of action and structure-activity relationships of cytotoxic flavokawain derivatives” (Bioorg Med Chem, 2017).
Active and inactive are the calls of the source. The calls are words filed in the database; no cut-off is given here.

Key:
[1] = test system: MCF7; assay: Cytotoxicity against human MCF7 assessed as cell viability after 48 hrs by Hoechst 33342 staining based assay; format: functional; conditions: MCF7, 48 h
[2] = test system: PC-3; assay: Cell cycle arrest in human PC3 cells assessed as accumulation at M phase by Hoechst staining based fluorescence assay; format: functional
[3] = test system: MDA-MB-231; assay: Cytotoxicity against human MDA-MB-231 cells assessed as cell viability after 48 hrs by Hoechst 33342 staining based assay; format: functional; conditions: MDA-MB-231, 48 h
[4] = test system: PC-3; assay: Cell cycle arrest in human PC3 cells harboring p53 mutant assessed as accumulation at S phase at 10 uM measured after 48 hrs by Hoechst/BrdU staining based fluorescence assay (reference value: 40.8%); format: functional
[5] = test system: MCF7; assay: Induction of apoptosis in human MCF7 cells harboring wild-type p53 assessed as upregulation of cyclinB1 measured after 18 hrs by Hoechst staining based assay; format: functional, cell-based
[6] = test system: PC-3; assay: Induction of apoptosis in human PC3 cells harboring p53 mutant assessed as increase in late apoptosis at 2 times IC50 after 48 hrs by YoPro/propidium iodide/Hoechst staining based assay; format: functional, cell-based
[7] = test system: HaCaT; assay: Cell cycle arrest in human HaCaT cells assessed as accumulation at M phase by Hoechst staining based fluorescence assay; format: functional
[8] = test system: Huh-7; assay: Cell cycle arrest in human HuH7 cells assessed as accumulation at S phase at 25 uM measured after 48 hrs by Hoechst/BrdU staining based fluorescence assay (reference value: 44%); format: functional
[9] = test system: MCF7; assay: Induction of apoptosis in human MCF7 cells harboring wild-type p53 assessed as upregulation of p21 measured after 48 hrs by Hoechst staining based fluorescence assay; format: functional, cell-based
[10] = test system: NCI-H727; assay: Cytotoxicity against human NCI-H727 cells assessed as cell survival at 50 uM after 48 hrs by Hoechst 33342 staining based assay relative to control; format: functional; conditions: NCI-H727, 48 h, read-out: Survival
[11] = test system: NCI-H727; assay: Cell cycle arrest in human NCI-H727 cells harboring p53 mutant assessed as mitotic index at 25 uM measured after 48 hrs by Hoechst staining based fluorescence assay (reference value: 1.1); format: functional
[12] = test system: PC-3; assay: Induction of apoptosis in human PC3 cells harboring p53 mutant assessed as increase in early apoptosis at 2 times IC50 after 48 hrs by YoPro/propidium iodide/Hoechst staining based assay; format: functional, cell-based
[13] = test system: HaCaT; assay: Cytotoxicity against human HaCaT cells assessed as cell survival at 50 uM after 48 hrs by Hoechst 33342 staining based assay relative to control; format: functional; conditions: read-out: Survival
[14] = test system: HaCaT; assay: Cell cycle arrest in human HaCaT cells harboring […] p53 assessed as mitotic index at 25 uM measured after 48 hrs by Hoechst staining based fluorescence assay (reference value: 2.6); format: functional
[15] = test system: HCT-116; assay: Induction of apoptosis in human HCT116 cells harboring wild-type p53 assessed as increase in early apoptosis at 2 times IC50 after 48 hrs by YoPro/propidium iodide/Hoechst staining based assay; format: functional, cell-based
[16] = test system: RL; assay: Cytotoxicity against human RL assessed as cell viability after 48 hrs by Hoechst 33342 staining based assay; format: functional
[17] = test system: HCT-116; assay: Cell cycle arrest in human HCT116 cells harboring wild-type p53 assessed as mitotic index at 25 uM measured after 48 hrs by Hoechst staining based fluorescence assay (reference value: 2.3); format: functional
[18] = Selectivity index, ratio of IC50 for human fibroblasts to IC50 for human HCT116 cells
[19] = test system: HCT-116; assay: Cell cycle arrest in human HCT116 cells harboring wild-type p53 assessed as accumulation at S phase at 10 uM measured after 48 hrs by Hoechst/BrdU staining based fluorescence assay (reference value: 68.4%); format: functional
[20] = test system: HCT-116; assay: Cell cycle arrest in human HCT116 cells harboring wild-type p53 assessed as mitotic index at 10 uM measured after 48 hrs by Hoechst staining based fluorescence assay (reference value: 2.3); format: functional
[21] = test system: NCI-H727; assay: Cell cycle arrest in human NCI-H727 cells harboring p53 mutant assessed as accumulation at S phase at 10 uM measured after 48 hrs by Hoechst/BrdU staining based fluorescence assay (reference value: 40.3%); format: functional
[22] = test system: HCT-116; assay: Induction of apoptosis in human HCT116 cells harboring wild-type p53 assessed as increase in late apoptosis at 2 times IC50 after 48 hrs by YoPro/propidium iodide/Hoechst staining based assay; format: functional, cell-based
[23] = test system: Caco-2; assay: Cell cycle arrest in human Caco2 cells assessed as accumulation at S phase at 10 uM measured after 48 hrs by Hoechst/BrdU staining based fluorescence assay (reference value: […]); format: functional
[24] = test system: MDA-MB-231; assay: Induction of apoptosis in human MDA-MB-231 cells harboring p53 mutant assessed as increase in early apoptosis at 2 times IC50 after 24 hrs by YoPro/propidium iodide/Hoechst staining based assay; format: functional, cell-based
[25] = test system: Caco-2; assay: Cell cycle arrest in human Caco2 cells assessed as mitotic index at 25 uM measured after 48 hrs by Hoechst staining based fluorescence assay (reference value: 3.6); format: functional
[26] = test system: MDA-MB-231; assay: Cell cycle arrest in human MDA-MB-231 cells harboring p53 mutant assessed as accumulation at S phase at 25 uM measured after 48 hrs by Hoechst/BrdU staining based fluorescence assay (reference value: 42.2%); format: functional
[27] = Cytotoxicity against human fibroblasts assessed as cell survival at 50 uM after 48 hrs by Hoechst 33342 staining based assay relative to control; set-up: species or system Fibroblast; conditions: read-out: Survival
[28] = test system: HCT-116; assay: Cell cycle arrest in human HCT116 cells harboring wild-type p53 assessed as accumulation at S phase at 25 uM measured after 48 hrs by Hoechst/BrdU staining based fluorescence assay (reference value: 68.4%); format: functional
[29] = test system: HCT-116; assay: Induction of apoptosis in human HCT116 cells harboring wild-type p53 assessed as upregulation of p21 measured after 48 hrs by Hoechst staining based fluorescence assay; format: functional, cell-based
[30] = Selectivity index, ratio of IC50 for human fibroblasts to IC50 for human MCF7 cells
[31] = test system: NCI-H727; assay: Cell cycle arrest in human NCI-H727 cells harboring p53 mutant assessed as accumulation at S phase at 25 uM measured after 48 hrs by Hoechst/BrdU staining based fluorescence assay (reference value: 40.3%); format: functional
[32] = test system: MDA-MB-231; assay: Cell cycle arrest in human MDA-MB-231 cells harboring p53 mutant assessed as accumulation at S phase at 10 uM measured after 48 hrs by Hoechst/BrdU staining based fluorescence assay (reference value: 42.2%); format: functional
[33] = test system: MDA-MB-231; assay: Cell cycle arrest in human MDA-MB-231 cells harboring p53 mutant assessed as mitotic index at 25 uM measured after 48 hrs by Hoechst staining based fluorescence assay (reference value: 2.1); format: functional
[34] = test system: HCT-116; assay: Induction of apoptosis in human HCT116 cells harboring wild-type p53 assessed as increase in cleaved caspase3 at 2 times IC50 after 48 hrs by Hoechst staining based assay; format: functional, cell-based
[35] = test system: MCF7; assay: Induction of apoptosis in human MCF7 cells harboring wild-type p53 assessed as increase in early apoptosis at 2 times IC50 after 24 hrs by YoPro/propidium iodide/Hoechst staining based assay; format: functional, cell-based
[36] = test system: MDA-MB-231; assay: Cell cycle arrest in human MDA-MB-231 cells assessed as accumulation at M phase by Hoechst staining based fluorescence assay; format: functional
[37] = test system: HaCaT; assay: Cell cycle arrest in human HaCaT cells harboring […] p53 assessed as mitotic index at 10 uM measured after 48 hrs by Hoechst staining based fluorescence assay (reference value: 2.6); format: functional

## COc1cc(OC)c(C(=O)/C=C/c2ccc(Br)cc2)c(OC)c1
[1]
  IC50: 9.5 µM
[2]
  Activity: Active
[3]
  IC50: 11.1 µM
[4]
  Activity: 35%
[5]
  Activity: Active
[6]
  Activity: Active
[7]
  Activity: Active
[8]
  Activity: 0.2%
[9]
  Activity: Active
[10]
  viability at 50 µM: 2%
[11]
  Activity_index: 0.7
[12]
  Activity: Active
[13]
  viability at 50 µM: 6%
[14]
  Activity_index: 0
[15]
  Activity: Active
[16]
  IC50: 8.3 µM
[17]
  Activity_index: 0.6
[18]
  Ratio IC50: >8.1
[19]
  Activity: 68%
[20]
  Activity_index: 2.8
[21]
  Activity: 39%
[22]
  Activity: Active
[23]
  Activity: 36%
[24]
  Activity: Active
[25]
  Activity_index: 1.4
[26]
  Activity: 44%
[27]
  viability at 48 h, 50 µM: 57%
[28]
  Activity: 68%
[29]
  Activity: Active
[30]
  Ratio IC50: >5.3
[31]
  Activity: 6%
[32]
  Activity: 42%
[33]
  Activity_index: 3.4
[34]
  Activity: Active
[35]
  Activity: Active
[36]
  Activity: Active
[37]
  Activity_index: 19

## COc1cc(OC)c(C(=O)/C=C/c2ccccc2SC)c(OC)c1
[1]
  IC50: 9.3 µM
[2]
  Activity: Active
[3]
  IC50: 9.9 µM
[4]
  Activity: 30%
[5]
  Activity: Active
[6]
  Activity: Active
[7]
  Activity: Active
[8]
  Activity: 0.3%
[9]
  Activity: Active
[10]
  viability at 50 µM: 1%
[11]
  Activity_index: 0
[12]
  Activity: Active
[13]
  viability at 50 µM: 6%
[14]
  Activity_index: 0.1
[15]
  Activity: Active
[16]
  IC50: 8.3 µM
[17]
  Activity_index: 0.4
[18]
  Ratio IC50: 4.7
[19]
  Activity: 25%
[20]
  Activity_index: 0.6
[21]
  Activity: 35%
[22]
  Activity: Active
[23]
  Activity: 36%
[24]
  Activity: Active
[25]
  Activity_index: 4.2
[26]
  Activity: 16%
[27]
  viability at 48 h, 50 µM: 74%
[28]
  Activity: 0.5%
[29]
  Activity: Active
[30]
  Ratio IC50: 3.4
[31]
  Activity: 3%
[32]
  Activity: 48%
[33]
  Activity_index: 13.2
[34]
  Activity: Active
[35]
  Activity: Active
[36]
  Activity: Active
[37]
  Activity_index: 18.9
